Holding throughout (test): microbe, parasite or virus in culture
Experiment [1] has as its system P. aeruginosa PAO1 (wild-type). The conditions noted are these: Pseudomonas aeruginosa, PAO1, read-out: MIC (agent alone). As for the experimental part: (§1) We evaluated the activity of SPRLPs in combination with fifteen clinically-used antibiotics against P. aeruginosa. Antibiotics tested included fluoroquinolones (moxifloxacin, ciprofloxacin and levofloxacin), aminoglycosides (gentamicin, tobramycin and amikacin), cephalosporins (ceftazidime and cefotaxime), carbapenems (meropenem and doripenem), aztreonam, rifampicin, minocycline, colistin and fosfomycin. The SPRLPs were screened initially at a fixed concentration of 8 μg/mL (5 μM) in combination with antibiotics against wild-type P. aeruginosa PAO1. We assessed potentiation by at least a four-fold absolute MIC reduction of the antibiotic, after which synergism was further validated by a conventional checkerboard assay. A fractional inhibitory concentration (FIC) index of ≤0.5, 0.5<x≤4 or >4 was interpreted as synergistic, indifferent or antagonistic interaction, respectively (31). FIC index was obtained by adding the FIC values of the antibiotic and the SPRLP adjuvant. FIC of antibiotics was calculated by dividing the MIC of the antibiotic in the presence of the adjuvant by the MIC of the antibiotic alone. Similarly, the FIC of adjuvant was calculated via dividing the MIC of the adjuvant in the presence of the antibiotic by the MIC of the adjuvant alone.
(§2) Microbroth dilution susceptibility test following the Clinical and Laboratory Standards Institute (CLSI) guidelines (32) was performed to assess the in vitro antibacterial activity of SPRLPs. Overnight grown bacterial cultures were diluted in saline to achieve a 0.5 McFarland turbidity, followed by 1:50 dilution in Mueller-Hinton broth (MHB) for inoculation to a final concentration of 5×10^5 colony forming units/mL. The assay was done on a 96-well plate to which the agents of interest were 2-fold serially diluted in MHB and incubated with equal volumes of inoculum at 37° C. for 18 hours. MIC was determined as the lowest concentration to inhibit visible bacterial growth in form of turbidity, which was confirmed using EMax Plus microplate reader (Molecular Devices, USA) at a wavelength of 590 nm. The well containing MHB broth with or without bacterial cells was used as positive or negative control, respectively.
(§3) The assay was performed on a 96-well plate, to which the agents of interest was 2-fold serially diluted in working MHB. Prior to serial dilution, SPRLP was added to the working MHB media so that a fixed final concentration of 8 μg/mL (5 μM) SPRLP per well was achieved. To ensure that the assay was working, the MIC determination test of the studied antibiotic (without SPRLP) was included on the same plate. Similar MIC results between the assay comparator and an independent MIC determination test (on a different plate) ensured validity of the synergy test. Overnight grown bacterial cultures were diluted in saline to 0.5 McFarland turbidity, followed by 1:50 dilution in MHB (without SPRLP) and inoculation into each well to a final concentration of approximately 5×10^5 colony forming units/mL. Wells containing only MHB (without SPRLP) with or without bacterial cells were used as positive or negative control, respectively. The plate was then incubated at 37° C. for 18 hours and examined for visible turbidity, to which was confirmed using EMax Plus microplate reader (Molecular Devices, USA) at a wavelength of 590 nm. A 4-fold or more MIC reduction of antibiotic in the presence of 8 μg/mL (5 μM) SPRLP denoted a positive synergy result and was further validated by a checkerboard assay.
The assay was done on a 96-well plate as previously described (40, 41). The agent of interest was 2-fold serially diluted along the x-axis, while the adjuvant was 2-fold serially diluted along the y-axis to create a matrix in which each well consist of a combination of both at different concentrations.

The test system of experiment [2] is P. aeruginosa 262-101856 (MDR/XDR). As to conditions: Pseudomonas aeruginosa, read-out: MIC (agent alone). The method, then:
as §1
(§4) Isolates used in this study were either obtained from the American Type Culture Collection (ATCC), the Canadian National Intensive Care Unit (CAN-ICU) surveillance study (27) or the Canadian Ward Surveillance (CANWARD) study (28). Clinical isolates belonging to the CAN-ICU and CANWARD studies were recovered from patients suffering a presumed infectious disease entering or admitted in a participating medical center across Canada during the time of study. MDR P. aeruginosa strains in this study refer to those that are resistant to aminoglycosides, fluoroquinolones, cephalosporins, and carbapenems while XDR strains are those that are resistant to aminoglycosides, fluoroquinolones, cephalosporins, carbapenems, aztreonam and penicillin+β-lactamase inhibitor combination (39, 40).
as §2
as §3, with “respectively.” for “respectively. The plate was then incubated at 37° C. for 18 hours and examined for visible turbidity, to which was confirmed using EMax Plus microplate reader (Molecular Devices, USA) at a wavelength of 590 nm. A 4-fold or more MIC reduction of antibiotic in the presence of 8 μg/mL (5 μM) SPRLP denoted a positive synergy result and was further validated by a checkerboard assay.”

In experiment [3] the test system is P. aeruginosa 260-97103 (MDR/XDR). As to conditions: Pseudomonas aeruginosa, read-out: MIC (agent alone). The method, then: as §1, §4, §2
as §3, with “respectively.” for “respectively. The plate was then incubated at 37° C. for 18 hours and examined for visible turbidity, to which was confirmed using EMax Plus microplate reader (Molecular Devices, USA) at a wavelength of 590 nm. A 4-fold or more MIC reduction of antibiotic in the presence of 8 μg/mL (5 μM) SPRLP denoted a positive synergy result and was further validated by a checkerboard assay.”

Experiment [4] has as its system P. aeruginosa 259-96918 (MDR/XDR). The conditions noted are these: Pseudomonas aeruginosa, read-out: MIC (agent alone). As for the experimental part: as §1, §4, §2
as §3, with “respectively.” for “respectively. The plate was then incubated at 37° C. for 18 hours and examined for visible turbidity, to which was confirmed using EMax Plus microplate reader (Molecular Devices, USA) at a wavelength of 590 nm. A 4-fold or more MIC reduction of antibiotic in the presence of 8 μg/mL (5 μM) SPRLP denoted a positive synergy result and was further validated by a checkerboard assay.”

Experiment [5] deals with P. aeruginosa 91433 (colistin-resistant, MDR/XDR). As to conditions: Pseudomonas aeruginosa, read-out: MIC (agent alone). As for the experimental part:
as §1, §4, §2
as §3, with “respectively.” for “respectively. The plate was then incubated at 37° C. for 18 hours and examined for visible turbidity, to which was confirmed using EMax Plus microplate reader (Molecular Devices, USA) at a wavelength of 590 nm. A 4-fold or more MIC reduction of antibiotic in the presence of 8 μg/mL (5 μM) SPRLP denoted a positive synergy result and was further validated by a checkerboard assay.”

The test system of experiment [6] is P. aeruginosa 101243 (colistin-resistant, MDR/XDR). As to conditions: antibiotic or lipopeptide alone; for MIC: Pseudomonas aeruginosa, read-out: MIC (agent alone), P. aeruginosa 101243 (colistin-resistant). The method, then: as §1, §4, §2
as §3, with “respectively.” for “respectively. The plate was then incubated at 37° C. for 18 hours and examined for visible turbidity, to which was confirmed using EMax Plus microplate reader (Molecular Devices, USA) at a wavelength of 590 nm. A 4-fold or more MIC reduction of antibiotic in the presence of 8 μg/mL (5 μM) SPRLP denoted a positive synergy result and was further validated by a checkerboard assay.”

The subject of experiment [7] is P. aeruginosa 264-104354 (MDR/XDR). As to conditions: Pseudomonas aeruginosa, read-out: MIC (agent alone). The method, then:
as §1, §4, §2
as §3, with “respectively.” for “respectively. The plate was then incubated at 37° C. for 18 hours and examined for visible turbidity, to which was confirmed using EMax Plus microplate reader (Molecular Devices, USA) at a wavelength of 590 nm. A 4-fold or more MIC reduction of antibiotic in the presence of 8 μg/mL (5 μM) SPRLP denoted a positive synergy result and was further validated by a checkerboard assay.”

Experiment [8] deals with P. aeruginosa 101885 (MDR/XDR). As to conditions: Pseudomonas aeruginosa, read-out: MIC (agent alone). As for the experimental part:
as §1, §4, §2
as §3, with “respectively.” for “respectively. The plate was then incubated at 37° C. for 18 hours and examined for visible turbidity, to which was confirmed using EMax Plus microplate reader (Molecular Devices, USA) at a wavelength of 590 nm. A 4-fold or more MIC reduction of antibiotic in the presence of 8 μg/mL (5 μM) SPRLP denoted a positive synergy result and was further validated by a checkerboard assay.”

Experiment [9] concerns P. aeruginosa 100036 (MDR/XDR). The conditions noted are these: Pseudomonas aeruginosa, read-out: MIC (agent alone). The method, then: as §1, §4, §2
as §3, with “respectively.” for “respectively. The plate was then incubated at 37° C. for 18 hours and examined for visible turbidity, to which was confirmed using EMax Plus microplate reader (Molecular Devices, USA) at a wavelength of 590 nm. A 4-fold or more MIC reduction of antibiotic in the presence of 8 μg/mL (5 μM) SPRLP denoted a positive synergy result and was further validated by a checkerboard assay.”

The source of these data is US20200407398A1, “Short Proline-Rich Lipopeptide Potentiates Minocycline and Rifampicin Against Multidrug-and Extensively Drug-Resistant Pseudomonas Aeruginosa” (priority 2018, published 2020).

Structures are written as SMILES.

Take `CO[C@H]1/C=C/O[C@@]2(C)Oc3c(C)c(O)c4c(O)c(c(/C=N/N5CCN(C)CC5)c(O)c4c3C2=O)NC(=O)/C(C)=C\C=C\[C@H](C)[C@H](O)[C@@H](C)[C@@H](O)[C@@H](C)[C@H](OC(C)=O)[C@@H]1C` [rifampicin]: the MIC in experiment [1] is 8 µg/mL; in experiment [2] it was 512 µg/mL; in experiment [3], 16 µg/mL; in experiment [4] it was 16 µg/mL; in experiment [5], 16 µg/mL; in experiment [6], 4 µg/mL. In addition, the MIC was 8 µg/mL in [7], 16 µg/mL in experiment [8] and 16 µg/mL in [9].

As for `CN(C)c1ccc(O)c2c1C[C@H]1C[C@H]3[C@H](N(C)C)C(O)=C(C(N)=O)C(=O)[C@@]3(O)C(O)=C1C2=O` [minocycline], the MIC in [1] came out at 8 µg/mL; in [2] it was 64 µg/mL; in experiment [3] it was 16 µg/mL; in [4], 16 µg/mL; in experiment [5], 32 µg/mL; in [6] it was 2 µg/mL. For the same compound, the MIC turned out to be 32 µg/mL in [7], 16 µg/mL in experiment [8] and 16 µg/mL in [9]. For the same compound, the “MIC (agent alone)” value in experiment [6] (P. aeruginosa 101243 (colistin-resistant)) turned out to be 4 µg/mL.
